Experimental findings from patent publication US11434242B2, “Dopamine-b-hydroxylase inhibitors” (BIAL-PORTELA & Cª, S.A., priority 2017, dated 2022) are described below.

For this experiment, the target named is T1, Dopamine beta hydroxylase (Homo sapiens, UniProt P09172).
T1 construct: 125 μl of plasma; tissue Instituto Português do Sangue Transplantação; host or cells: human plasma from healthy donors
T1 sequence (P09172 40-617 limits assumed): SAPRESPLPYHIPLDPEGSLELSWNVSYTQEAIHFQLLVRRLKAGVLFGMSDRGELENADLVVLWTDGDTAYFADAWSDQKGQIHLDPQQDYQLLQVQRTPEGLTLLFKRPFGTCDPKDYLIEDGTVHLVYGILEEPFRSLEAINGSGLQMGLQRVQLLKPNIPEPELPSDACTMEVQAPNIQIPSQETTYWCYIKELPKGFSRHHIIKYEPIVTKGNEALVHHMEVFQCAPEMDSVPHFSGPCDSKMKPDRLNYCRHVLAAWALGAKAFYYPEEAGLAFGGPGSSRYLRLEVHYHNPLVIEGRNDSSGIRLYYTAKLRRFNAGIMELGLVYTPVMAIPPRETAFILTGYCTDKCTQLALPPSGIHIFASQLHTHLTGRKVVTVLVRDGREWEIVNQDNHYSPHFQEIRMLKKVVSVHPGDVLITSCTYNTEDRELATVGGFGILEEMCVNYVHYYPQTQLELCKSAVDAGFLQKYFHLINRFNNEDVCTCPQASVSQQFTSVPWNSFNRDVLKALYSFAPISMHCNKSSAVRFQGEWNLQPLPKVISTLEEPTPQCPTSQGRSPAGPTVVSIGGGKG
Put plainly: Dopamine beta hydroxylase activity in human plasma. The experiment is classed as biochemical. To be noted: for Plasma (1 μM), activity in % of control: inhibitor 1 μM. An outline of the steps:
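Healthy-donor human plasma pre-incubated 10 min at 37° C with compound at final 10, 100 or 1000 nM in pH 5.0 acetate buffer with ascorbate, fumarate, pargyline, N-ethylmaleimide, catalase and copper sulfate. Tyramine substrate then added for 45 min; octopamine formed was isolated by SCX cartridge, periodate-converted and read at 330 nm; activity given as % control.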

Marks after values point to notes of the source that are not given here.

With `O=C(Cc1[nH]c(=S)n2c1C[C@@H](c1c(F)ccc(Cl)c1F)C2)N1CCCC1` [Example 110, (S)-2-(6-(3-chloro-2,6-difluorophenyl)-3-thioxo-2,5,6,7-tetrahydro-3H-pyrrolo[1,2-c]imidazol-1-yl)-1-(pyrrolidin-1-yl)ethan-1-one], the “Plasma (1 μM), activity in % of control” value is reported as 9.7 % of control. For the same molecule, the “Plasma (0.1 μM), activity in % of control” value (inhibitor 0.1 μM) is given as 52.4 % of control.
Turning to `CN(C(=O)Cc1c2n(c(=S)n1C)C[C@@]1(c3cc(Br)ccc3F)C[C@@H]21)C1CCOC1` (stereo partly drawn) [Example 440, 2-((5aS,6aR)-5a-(5-bromo-2-fluorophenyl)-2-methyl-3-thioxo-2,3,5,5a,6,6a-hexahydrocyclopropa[3,4]pyrrolo[1,2-c]imidazol-1-yl)-N-methyl-N-(tetrahydrofuran-3-yl)acetamide], the “Plasma (0.01 μM), activity in % of control” value (inhibitor 0.01 μM) was 57.2 % of control. For the same molecule, where the note is “inhibitor 0.1 μM”, the “Plasma (0.1 μM), activity in % of control” value was 8.4 % of control.
Consider `Cn1c(CC(=O)NCC#N)c2n(c1=S)C[C@H](c1c(F)ccc(Br)c1F)C2` [Example 253, (S)-2-(6-(3-bromo-2,6-difluorophenyl)-2-methyl-3-thioxo-2,5,6,7-tetrahydro-3H-pyrrolo[1,2-c]imidazol-1-yl)-N-(cyanomethyl)acetamide], for which the “Plasma (0.01 μM), activity in % of control” value (inhibitor 0.01 μM) is given as 63.4 % of control. Moreover, where the note is “inhibitor 0.1 μM”, the “Plasma (0.1 μM), activity in % of control” value is on record as 24.5 % of control.
For `Cn1c(CC(=O)NC2CCCCC2)c2n(c1=S)C[C@@]1(c3cc(Br)ccc3F)C[C@@H]21` [Example 294, 2-((5aS,6aR)-5a-(5-bromo-2-fluorophenyl)-2-methyl-3-thioxo-2,3,5,5a,6,6a-hexahydrocyclopropa[3,4]pyrrolo[1,2-c]imidazol-1-yl)-N-cyclohexylacetamide] the same measures were 39.7 % of control and 1.7 % of control.
`[2H]C([2H])([2H])n1c(CC(=O)N[C@H]2CCOC2)c2n(c1=S)C[C@@]1(c3cc(Br)ccc3F)C[C@@H]21` [Example 461, 2-((5aS,6aR)-5a-(5-bromo-2-fluorophenyl)-2-(methyl-d)-3-thioxo-2,3,5,5a,6,6a-hexahydrocyclopropa[3,4]pyrrolo[1,2-c]imidazol-1-yl)-N—((S)-tetrahydrofuran-3-yl)acetamide]: the “Plasma (0.01 μM), activity in % of control” value (inhibitor 0.01 μM) was 45.6 % of control. Moreover, the “Plasma (0.1 μM), activity in % of control” value (inhibitor 0.1 μM) is listed as 6.9 % of control.
Take `O=C(CCc1[nH]c(=S)n2c1C[C@H](c1c(F)c(F)cc(F)c1F)C2)NCC1CC1` [Example 203, (R)—N-(cyclopropylmethyl)-3-(6-(2,3,5,6-tetrafluorophenyl)-3-thioxo-2,5,6,7-tetrahydro-3H-pyrrolo[1,2-c]imidazol-1-yl)propanamide]: the “Plasma (0.01 μM), activity in % of control” value (inhibitor 0.01 μM) is 95.8 % of control. Besides, the “Plasma (0.1 μM), activity in % of control” value (inhibitor 0.1 μM) is 75.8 % of control.
As to `CN(C(=O)Cc1c2n(c(=S)n1C)C[C@@]1(c3c(F)ccc(Cl)c3F)C[C@@H]21)[C@@H]1CCOC1` [Example 467, 2-((5aS,6aR)-5a-(3-chloro-2,6-difluorophenyl)-2-methyl-3-thioxo-2,3,5,5a,6,6a-hexahydrocyclopropa[3,4]pyrrolo[1,2-c]imidazol-1-yl)-N-methyl-N—((R)-tetrahydrofuran-3-yl)acetamide], the “Plasma (0.01 μM), activity in % of control” value (inhibitor 0.01 μM) is reported as 27.9 % of control. Moreover, the “Plasma (0.1 μM), activity in % of control” value (inhibitor 0.1 μM) was 4.0 % of control.
Turning to `O=C(Cc1[nH]c(=S)n2c1C[C@@H](c1c(F)ccc(Br)c1F)C2)N1CCC[C@H]1CO` [Example 100, 2-((S)-6-(3-bromo-2,6-difluorophenyl)-3-thioxo-2,5,6,7-tetrahydro-3H-pyrrolo[1,2-c]imidazol-1-yl)-1-((S)-2-(hydroxymethyl)pyrrolidin-1-yl)ethan-1-one], the “Plasma (1 μM), activity in % of control” value is given as 2.1 % of control. The “Plasma (0.1 μM), activity in % of control” value (inhibitor 0.1 μM) is listed as 26.2 % of control.
Regarding `Cl.Fc1ccc(Br)cc1[C@]12C[C@H]1c1c(CCNCC3CC3)[nH]c(=S)n1C2` [Example 186, (5aS,6aR)-5a-(5-bromo-2-fluorophenyl)-1-(2-((cyclopropylmethyl)amino)ethyl)-5,5a,6,6a-tetrahydrocyclopropa[3,4]pyrrolo[1,2-c]imidazole-3(2H)-thione hydrochloride], under “inhibitor 0.01 μM”, the “Plasma (0.01 μM), activity in % of control” value is recorded as 62.7 % of control. Also, the “Plasma (0.1 μM), activity in % of control” value (inhibitor 0.1 μM) was 18.0 % of control.
For `O=C(O)Cc1[nH]c(=S)n2c1C[C@@H](c1c(F)ccc(Cl)c1F)C2` [Example 407, (S)-2-(6-(3-chloro-2,6-difluorophenyl)-3-thioxo-2,5,6,7-tetrahydro-3H-pyrrolo[1,2-c]imidazol-1-yl)acetic acid] the same measures were 102.6 % of control and 42.3 % of control.
For `Cn1c(CCC(=O)N2CCOCC2)c2n(c1=S)C[C@@H](c1c(F)ccc(F)c1F)C2` [Example 266, (R)-3-(2-methyl-3-thioxo-6-(2,3,6-trifluorophenyl)-2,5,6,7-tetrahydro-3H-pyrrolo[1,2-c]imidazol-1-yl)-1-morpholinopropan-1-one], under “inhibitor 0.01 μM”, the “Plasma (0.01 μM), activity in % of control” value was 85.3 % of control. Also, the “Plasma (0.1 μM), activity in % of control” value (inhibitor 0.1 μM) is listed as 56.0 % of control.
For `Cn1c(CC(=O)N[C@H]2CC[C@H](O)CC2)c2n(c1=S)C[C@@]1(c3cc(Br)ccc3F)C[C@@H]21` [Example 325, 2-((5aS,6aR)-5a-(5-bromo-2-fluorophenyl)-2-methyl-3-thioxo-2,3,5,5a,6,6a-hexahydrocyclopropa[3,4]pyrrolo[1,2-c]imidazol-1-yl)-N-((1r,4R)-4-hydroxycyclohexyl)acetamide] the same measures were 34.2 % of control and 3.8 % of control.
For `Cn1c(CC(=O)N2CC[C@H](C#N)C2)c2n(c1=S)C[C@H](c1c(F)ccc(Br)c1F)C2` [Example 450, (S)-1-(2-((S)-6-(3-bromo-2,6-difluorophenyl)-2-methyl-3-thioxo-2,5,6,7-tetrahydro-3H-pyrrolo[1,2-c]imidazol-1-yl)acetyl)pyrrolidine-3-carbonitrile] the same measures were 32.6 % of control and 2.3 % of control.
On to `Cl.Fc1ccc(F)c([C@H]2Cc3c(CCNCC4CCOCC4)[nH]c(=S)n3C2)c1F` [Example 473, (R)-1-(2-(((tetrahydro-2H-pyran-4-yl)methyl)amino)ethyl)-6-(2,3,6-trifluorophenyl)-2,5,6,7-tetrahydro-3H-pyrrolo[1,2-c]imidazole-3-thione hydrochloride], for which the “Plasma (0.01 μM), activity in % of control” value (inhibitor 0.01 μM) was 98.9 % of control. Besides, under “inhibitor 0.1 μM”, the “Plasma (0.1 μM), activity in % of control” value is 46.2 % of control.
For `Cn1c(CC(=O)N2CCOCC2)c2n(c1=S)C[C@H](c1c(F)ccc(Br)c1F)C2` [Example 233, (S)-2-(6-(3-bromo-2,6-difluorophenyl)-2-methyl-3-thioxo-2,5,6,7-tetrahydro-3H-pyrrolo[1,2-c]imidazol-1-yl)-1-morpholinoethan-1-one], for the setting “inhibitor 0.01 μM”, the “Plasma (0.01 μM), activity in % of control” value is listed as 83.8 % of control. In addition, where the note is “inhibitor 0.01 μM, re-tested under the same experimental conditions, asterisked data believed to be correct”, the “Plasma (0.01 μM), activity in % of control, re-test (asterisked)” value is given as 59.3* % of control. The “Plasma (0.1 μM), activity in % of control” value (inhibitor 0.1 μM) was 66.8 % of control. Further, the “Plasma (0.1 μM), activity in % of control, re-test (asterisked)” value (inhibitor 0.1 μM, re-tested under the same experimental conditions, asterisked data believed to be correct) was 9.7* % of control.
In the case of `Cl.Cn1c(CC(=O)NCc2ccccn2)c2n(c1=S)C[C@@]1(c3cc(Cl)ccc3F)C[C@@H]21` [Example 332, 2-((5aS,6aR)-5a-(5-chloro-2-fluorophenyl)-2-methyl-3-thioxo-2,3,5,5a,6,6a-hexahydrocyclopropa[3,4]pyrrolo[1,2-c]imidazol-1-yl)-N-(pyridin-2-ylmethyl)acetamide Hydrochloride], where the note is “inhibitor 0.01 μM”, the “Plasma (0.01 μM), activity in % of control” value is listed as 32.8 % of control. Moreover, the “Plasma (0.1 μM), activity in % of control” value (inhibitor 0.1 μM) was 2.7 % of control.
On to `Cn1c(CC(=O)N[C@@H]2CCOC2)c2n(c1=S)C[C@H](c1cc(F)cc(F)c1)C2` [Example 425, 2-((S)-6-(3,5-difluorophenyl)-2-methyl-3-thioxo-2,5,6,7-tetrahydro-3H-pyrrolo[1,2-c]imidazol-1-yl)-N—((R)-tetrahydrofuran-3-yl)acetamide], for which the “Plasma (0.01 μM), activity in % of control” value (inhibitor 0.01 μM) is given as 78.6 % of control. The “Plasma (0.1 μM), activity in % of control” value (inhibitor 0.1 μM) is given as 52.0 % of control.
With `O=C(Cc1[nH]c(=S)n2c1[C@@H]1C[C@]1(c1cc(Br)ccc1F)C2)Nc1ccccn1` [Example 170, 2-((5aS,6aR)-5a-(5-bromo-2-fluorophenyl)-3-thioxo-2,3,5,5a,6,6a-hexahydrocyclopropa[3,4]pyrrolo[1,2-c]imidazol-1-yl)-N-(pyridin-2-yl)acetamide], the “Plasma (0.01 μM), activity in % of control” value (inhibitor 0.01 μM) is reported as 64.9 % of control. Moreover, the “Plasma (0.1 μM), activity in % of control” value (inhibitor 0.1 μM) is on record as 2.0 % of control.
